{
  "source": "ChEMBL document CHEMBL3124773",
  "about": "“Stereoselective preparation of pyridoxal 1,2,3,4-tetrahydro-β-carboline derivatives and the influence of their absolute and relative configuration on the proliferation of the malaria parasite Plasmodium falciparum” (Bioorg Med Chem, 2014)",
  "data": [
    {"tested_on": "Plasmodium falciparum", "assay": "Antiplasmodial activity against Plasmodium falciparum 3D7 infected in human erythrocytes after 48 hrs by [3H]hypoxanthine incorporation assay", "assay_type": "functional, organism-based", "units": {"IC50": "µM"}, "values": [
      {"smiles": "COC(=O)C1Cc2c([nH]c3ccccc23)C(c2c(CO)cnc(C)c2O)N1", "note": "(stereo not given)", "IC50": 14},
      {"smiles": "COC(=O)[C@@H]1Cc2c([nH]c3ccccc23)[C@H](c2c(CO)cnc(C)c2O)N1", "IC50": 91},
      {"smiles": "COC(=O)[C@@H]1Cc2c([nH]c3ccccc23)[C@@H](c2c(CO)cnc(C)c2O)N1", "IC50": 22},
      {"smiles": "COC(=O)[C@H]1Cc2c([nH]c3ccccc23)[C@@H](c2c(CO)cnc(C)c2O)N1", "IC50": 108},
      {"smiles": "COC(=O)[C@H]1Cc2c([nH]c3ccccc23)[C@H](c2c(CO)cnc(C)c2O)N1", "IC50": 8}
    ]}
  ]
}
